Test results taken from PubChem BioAssay (NCI).
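Following 48 hours of exposure in 96-well plates, responses at five concentrations were used to interpolate endpoints linearly. TGI denotes the concentration required for complete inhibition of growth.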

Tests used:
Assay in all cases: growth of human tumour cells (NCI), 48 h
EKVX NSCLC = tested on: EKVX NSCLC
SNB-19 CNS = tested on: SNB-19 CNS
SN12C renal = tested on: SN12C renal
CAKI-1 renal = tested on: CAKI-1 renal
M14 melanoma = tested on: M14 melanoma
SR leukemia = tested on: SR leukemia
OVCAR-3 ovarian = tested on: OVCAR-3 ovarian
RPMI-8226 leukemia = tested on: RPMI-8226 leukemia
MALME-3M melanoma = tested on: MALME-3M melanoma
MOLT-4 leukemia = tested on: MOLT-4 leukemia
ACHN renal = tested on: ACHN renal
SK-MEL-2 melanoma = tested on: SK-MEL-2 melanoma
NCI-H460 lung = tested on: NCI-H460 lung
K-562 leukemia = tested on: K-562 leukemia
HT29 colon = tested on: HT29 colon
SF-539 CNS = tested on: SF-539 CNS
HS 578T breast = tested on: HS 578T breast
A498 renal = tested on: A498 renal
MDA-N = tested on: MDA-N

Compound | TGI (EKVX NSCLC) [µM] | TGI (SNB-19 CNS) [µM] | TGI (SN12C renal) [µM] | TGI (CAKI-1 renal) [µM] | TGI (M14 melanoma) [µM] | TGI (SR leukemia) [µM] | TGI (OVCAR-3 ovarian) [µM] | TGI (RPMI-8226 leukemia) [µM] | TGI (MALME-3M melanoma) [µM] | TGI (MOLT-4 leukemia) [µM] | TGI (ACHN renal) [µM] | TGI (SK-MEL-2 melanoma) [µM] | TGI (NCI-H460 lung) [µM] | TGI (K-562 leukemia) [µM] | TGI (HT29 colon) [µM] | TGI (SF-539 CNS) [µM] | TGI (HS 578T breast) [µM] | TGI (A498 renal) [µM] | TGI (MDA-N) [µM]
CCCCC1C(=O)N(c2ccc(S(=O)(=O)Nc3ccccn3)cc2)N(c2ccc(O)c(C(=O)O)c2)C1=O (configuration not stated) | > 100 | > 100 | > 100 | > 100 | > 100 | > 100 | > 100 | > 100 | > 100 | > 100 | > 100 | > 100 | > 100 | > 100 | > 100 | > 100 | > 100 | > 100 | > 100
Cc1ccc(/C=N/Nc2cc(C)c3ccccc3n2)s1 | 27 | > 100 | 41.1 | 37 | 42.8 | > 100 | 7.93 | 29.1 | 22.4 | 45.1 | 45.4 | > 100 | – | 39.2 | 18.7 | 51.5 | > 100 | – | 37.6
CCOC(=O)c1ccc(NC(=O)O/N=C(/Cl)C(C)C)cc1 | 31.3 | > 59.1 | 44 | 8.87 | 14.6 | 11.2 | 11.5 | 24.8 | 8.49 | 4.63 | 27 | 29.3 | 38.3 | 3.52 | 48 | 34.6 | 94.8 | 28.4 | 32.4
COc1cc(/C=C/C=C2\CCC/C(=C\C=C\c3ccc(O)c(OC)c3)C2=O)ccc1O | 64.7 | > 100 | 65.8 | 34.2 | > 100 | 19.7 | > 100 | 28.5 | 44.8 | 10.4 | 39 | 87.5 | 57.7 | > 100 | 31.1 | 45.9 | > 100 | – | > 100
CC(=O)/C=C(/C=N/O)c1ccccc1 | > 100 | > 100 | > 100 | > 100 | > 100 | > 100 | > 100 | > 100 | > 100 | > 100 | > 100 | > 100 | > 100 | > 100 | > 100 | > 100 | > 100 | – | > 100
CN(C)Cc1cc(C(=O)/C=C/c2ccc(Br)cc2)cc(CN(C)C)c1O | 36.3 | 26.6 | 14.8 | 6.34 | 22.1 | 50.6 | 17 | 26.8 | 34.6 | 19.6 | 15 | – | 21.9 | 10.8 | 12.5 | 31.9 | 45.1 | 30.4 | 9.81
CCOC(=O)CCC(NC(=O)c1ccc(Nc2cnc3cc(C(F)(F)F)ccc3n2)cc1)C(=O)OCC (configuration not stated) | > 100 | > 47.8 | > 100 | 47 | > 100 | > 100 | > 100 | > 100 | > 100 | > 100 | > 100 | > 100 | > 100 | > 100 | > 100 | > 100 | 47.7 | – | > 100
C[n+]1c2ccccc2c(C(=O)NC(CCCN=C(N)N)C(=O)O)c2ccccc21 (configuration not stated) | > 100 | > 100 | > 100 | – | > 100 | > 100 | > 100 | > 100 | > 100 | > 100 | > 100 | > 100 | > 100 | > 100 | > 100 | > 100 | > 100 | > 100 | > 100
Cc1cc(S(=O)(=O)Nc2nc3ccccc3[nH]2)c(S)cc1Cl | 99.5 | > 100 | > 100 | > 100 | > 100 | > 100 | > 100 | > 100 | – | > 100 | > 100 | > 100 | > 100 | > 100 | > 100 | > 100 | > 100 | > 100 | > 100
CCOC(=O)c1c(C)noc1/N=N/N(CCO)CCO | > 100 | > 100 | > 100 | > 100 | > 100 | 66.1 | 59.4 | – | > 100 | 60.3 | > 100 | – | > 100 | > 100 | > 100 | – | > 100 | 75.3 | > 100
NC(N)=NCc1ccc2c(c1)OCO2 | > 100 | > 100 | – | > 100 | > 100 | > 100 | > 100 | > 100 | > 100 | > 100 | > 100 | > 100 | > 100 | > 100 | > 100 | > 100 | > 100 | > 100 | > 100
c1cc2[nH]snc2c2cncc12 | > 100 | – | > 100 | > 100 | – | > 100 | > 100 | > 100 | > 100 | > 100 | > 100 | > 100 | > 100 | > 100 | > 100 | > 100 | > 100 | > 100 | > 100
c1ccc(CN2CCCN3CCN(CCCN(Cc4ccccc4)CC3)CC2)cc1 | > 100 | > 100 | > 100 | > 100 | > 100 | > 100 | > 100 | > 100 | – | > 100 | > 100 | 49.9 | > 100 | > 100 | > 100 | > 100 | > 100 | > 100 | > 100
